Measured values reported in patent US11111251B2, “Positive allosteric modulators of the muscarinic acetylcholine receptor M1” (Vanderbilt University, priority 2016, dated 2021).
Read-outs that look alike come from different tables or passages of the source.

Biological target: T1, human mAChR M1 (Homo sapiens, UniProt P11229)
T1 sequence (P11229 1-460): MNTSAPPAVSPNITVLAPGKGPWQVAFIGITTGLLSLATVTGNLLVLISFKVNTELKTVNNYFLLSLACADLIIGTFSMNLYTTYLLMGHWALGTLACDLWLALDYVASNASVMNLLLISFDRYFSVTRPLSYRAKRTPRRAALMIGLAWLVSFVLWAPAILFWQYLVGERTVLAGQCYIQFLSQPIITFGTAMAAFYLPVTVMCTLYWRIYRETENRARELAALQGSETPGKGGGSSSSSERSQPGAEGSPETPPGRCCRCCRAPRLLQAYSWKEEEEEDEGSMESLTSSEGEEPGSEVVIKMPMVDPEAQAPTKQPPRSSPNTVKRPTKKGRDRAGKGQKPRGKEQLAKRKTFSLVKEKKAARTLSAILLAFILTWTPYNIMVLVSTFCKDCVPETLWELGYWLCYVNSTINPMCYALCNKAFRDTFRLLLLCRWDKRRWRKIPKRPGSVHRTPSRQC
Assay: mAChR M1 cell-based functional assay: calcium mobilization, positive allosteric modulator mode (increase in EC20 acetylcholine response)
Settings: for Emax: read-out: Human M1 Emax (%)
In short: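 Calcium-flux assay in CHO-K1 cells stably expressing human M1, loaded with Fluo-4 AM (50 min, 37 °C) and read at 1 Hz. Compound (11-point, 1:3 series) was added at 4 s, EC20 acetylcholine at 144 s and EC80 at 230 s. PAM activity is the concentration-dependent rise in the EC20 response, fitted with a four-parameter logistic.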

[1] = Table 2, human M1, read-out: Human M1 EC50
[2] = Table 1, mAChR M1 cell-based functional assay, PAM mode, species not given, read-out: EC50

Compound	EC50 [1] [nM]	Emax (Table 2, human M1) [%]	EC50 [2] [nM]
Cc1nc(-c2ccc(Cc3cc(C(=O)N[C@@H]4CCC[C@H]4O)nc4ccsc34)cc2)cs1 [Compound 182, N-[(1R,2R)-2-hydroxycyclopentyl]-7-[[4-(2-methylthiazol-4-yl)phenyl]methyl]thieno[3,2-b]pyridine-5-carboxamide]	183	84	
Cc1ccc(Oc2cc(C(=O)N[C@H]3COCC[C@@H]3O)nc3ccsc23)cn1 [Compound 23, N-[(3S,4S)-4-hydroxytetrahydropyran-3-yl]-7-[(6-methyl-3-pyridyl)oxy]thieno[3,2-b]pyridine-5-carboxamide]			> 10000
Cc1ncc(Cc2cc(C(=O)NC3CCCCC3)nc3ccsc23)s1 [Compound 134, N-cyclohexyl-7-[(2-methylthiazol-5-yl)methyl]thieno[3,2-b]pyridine-5-carboxamide]	3210	37.6	
Cc1csc2c(Cc3ccc(-c4ccn(C)n4)cc3)cc(C(=O)N[C@@H]3CCOC3)nc12 [Compound 305, 3-methyl-7-[[4-(1-methylpyrazol-3-yl)phenyl]methyl]-N-[(3R)-tetrahydrofuran-3-yl]thieno[3,2-b]pyridine-5-carboxamide]	2850	76.3	
Cc1ccc(Cc2cc(C(=O)NC3CCCNC3=O)nc3ccsc23)cn1 (centres unmarked) [Compound 66, 7-[(6-methyl-3-pyridyl)methyl]-N-(2-oxo-3-piperidyl)thieno[3,2-b]pyridine-5-carboxamide]	7410	93	
Cc1ccc(Cc2cc(C(=O)N[C@@H]3CCCCC[C@H]3O)nc3c(C)csc23)cn1 [Compound 107]	474	88.5	
O=C(N[C@@H]1CCOC[C@H]1O)c1cc(Cc2ccc(C(F)(F)F)nc2)c2sccc2n1 [Compound 91, N-[(3S,4R)-3-hydroxytetrahydropyran-4-yl]-7-[[6-(trifluoromethyl)-3-pyridyl]methyl]thieno[3,2-b]pyridine-5-carboxamide]	73.8	87.9	
CC1CC(NC(=O)c2cc(Cc3ccc(-c4cnn(C)c4)cc3)c3sccc3n2)CC(C)O1 (centres unmarked) [Compound 380, N-(2,6-dimethyltetrahydropyran-4-yl)-7-[[4-(1-methylpyrazol-4-yl)phenyl]methyl]thieno[3,2-b]pyridine-5-carboxamide]	287	64.5	
Cc1nc(-c2ccc(Cc3cc(C(=O)NC4CCCNC4=O)nc4ccsc34)cc2)cs1 (centres unmarked) [Compound 198, 7-[[4-(2-methylthiazol-4-yl)phenyl]methyl]-N-(2-oxo-3-piperidyl)thieno[3,2-b]pyridine-5-carboxamide]	484	90	
Cc1nn(C)c(C)c1-c1ccc(Cc2cc(C(=O)N[C@@H]3CC[C@H]3O)nc3ccsc23)cc1 [Compound 240, N-[(1R,2R)-2-hydroxycyclobutyl]-7-[[4-(1,3,5-trimethylpyrazol-4-yl)phenyl]methyl]thieno[3,2-b]pyridine-5-carboxamide]	> 10000	19.9	
Cn1ccc2nc(C(=O)N[C@H]3CCC[C@@H]3O)cc(Cc3ccc(-c4nccs4)cc3)c21 [Compound 483, N-[(1S,2S)-2-hydroxycyclopentyl]-1-methyl-7-[(4-thiazol-2-ylphenyl)methyl]pyrrolo[3,2-b]pyridine-5-carboxamide]	65	58.6	
O=C(N[C@@H]1CCCC[C@H]1O)c1cc(Cc2ccc(-n3cccn3)cc2)c2sccc2n1 [Compound 73, N-[(1R,2R)-2-hydroxycyclohexyl]-7-[(4-pyrazol-1-ylphenyl)methyl]thieno[3,2-b]pyridine-5-carboxamide]	50.1	87.9	
Cn1ccc(-c2ccc(Cc3cc(C(=O)N[C@H]4CCCC[C@@H]4O)nc4ccsc34)cc2)n1 [Compound 256, N-[(1S,2S)-2-hydroxycyclohexyl]-7-[[4-(1-methylpyrazol-3-yl)phenyl]methyl]thieno[3,2-b]pyridine-5-carboxamide]	57.6	50	
O=C(NC1CCOCC1)c1cc(Cc2ccc(C(F)(F)F)nc2)c2sccc2n1 [Compound 89, N-tetrahydropyran-4-yl-7-[[6-(trifluoromethyl)-3-pyridyl]methyl]thieno[3,2-b]pyridine-5-carboxamide]	1730	71.8	
Cn1ccc2nc(C(=O)N[C@@H]3CCOC3)cc(Cc3ccc(-c4cscn4)cc3)c21 [Compound 465, 1-methyl-N-[(3R)-tetrahydrofuran-3-yl]-7-[(4-thiazol-4-ylphenyl)methyl]pyrrolo[3,2-b]pyridine-5-carboxamide]	1870	72	
Cn1cc(-c2ccc(Cc3cc(C(=O)NC4CCOCC4)nc4ccn(C)c34)cn2)cn1 [Compound 470, 1-methyl-7-[[6-(1-methylpyrazol-4-yl)-3-pyridyl]methyl]-N-tetrahydropyran-4-yl-pyrrolo[3,2-b]pyridine-5-carboxamide]	223	86	

Compound	EC50 [1] [nM]	Emax (Table 2, human M1) [%]	EC50 [2] [nM]
CO[C@H]1CCCC[C@@H]1NC(=O)c1cc(Oc2ccc(C)nc2)c2sccc2n1 [Compound 24, N-[(1S,2S)-2-methoxycyclohexyl]-7-[(6-methyl-3-pyridyl)oxy]thieno[3,2-b]pyridine-5-carboxamide]			> 10000
Cc1nn(C)cc1-c1ccc(Cc2cc(C(=O)NC3COC3)nc3ccsc23)cc1 [Compound 244, 7-[[4-(1,3-dimethylpyrazol-4-yl)phenyl]methyl]-N-(oxetan-3-yl)thieno[3,2-b]pyridine-5-carboxamide]	187	15	
Cn1ccc2nc(C(=O)NC3COC3)cc(Cc3ccc(-c4cscn4)cc3)c21 [Compound 467, 1-methyl-N-(oxetan-3-yl)-7-[(4-thiazol-4-ylphenyl)methyl]pyrrolo[3,2-b]pyridine-5-carboxamide]	2970	61.2	
Cn1cc(-c2ccc(Cc3cc(C(=O)NC[C@H]4CCCO4)nc4ccsc34)cn2)cn1 [Compound 339, 7-[[6-(1-methylpyrazol-4-yl)-3-pyridyl]methyl]-N-[[(2R)-tetrahydrofuran-2-yl]methyl]thieno[3,2-b]pyridine-5-carboxamide]	131	87.4	
O=C(N[C@@H]1CC[C@H]1O)c1cc(Cc2ccc(-n3cccn3)cc2)c2sccc2n1 [Compound 227, N-[(1R,2R)-2-hydroxycyclobutyl]-7-[(4-pyrazol-1-ylphenyl)methyl]thieno[3,2-b]pyridine-5-carboxamide]	125	79.8	
Cn1ccc(-c2ccc(Cc3cc(C(=O)NC[C@H]4CCCN4)nc4ccsc34)cn2)n1 [Compound 427]	316	64.6	
Cc1csc2c(Cc3ccc(-n4cccn4)cc3)cc(C(=O)N(C)C3CCOCC3)nc12 [Compound 121, N,3-dimethyl-7-[(4-pyrazol-1-ylphenyl)methyl]-N-tetrahydropyran-4-yl-thieno[3,2-b]pyridine-5-carboxamide]	6760	54.9	
Cc1ccc(Cc2cc(C(=O)NC3CCCCNC3=O)nc3ccsc23)cn1 (centres unmarked) [Compound 67, 7-[(6-methyl-3-pyridyl)methyl]-N-(2-oxoazepan-3-yl)thieno[3,2-b]pyridine-5-carboxamide]	2780	92.7	
Cc1ccc(Cc2cc(C(=O)N[C@H]3CC[C@@H]3O)nc3c(C)csc23)cn1 [Compound 99]	7300	77.7	
Cc1ccc(Cc2cc(C(=O)N[C@H]3CCOC3)nc3ccsc23)cn1 [Compound 263, 7-[(6-methyl-3-pyridyl)methyl]-N-[(35)-tetrahydrofuran-3-yl]thieno[3,2-b]pyridine-5-carboxamide]	> 10000	29.3	
O=C(NC1CCCCNC1=O)c1cc(Cc2ccc(-c3cscn3)cc2)c2sccc2n1 (centres unmarked) [Compound 222, N-(2-oxoazepan-3-yl)-7-[(4-thiazol-4-ylphenyl)methyl]thieno[3,2-b]pyridine-5-carboxamide]	317	80.3	
Cn1ccc(-c2ccc(Cc3cc(C(=O)NC[C@H]4CCCO4)nc4ccsc34)cn2)n1 [Compound 413, 7-[[6-(1-methylpyrazol-3-yl)-3-pyridyl]methyl]-N-[[(2R)-tetrahydrofuran-2-yl]methyl]thieno[3,2-b]pyridine-5-carboxamide]	191	72.5	
Cc1csc2c(Cc3ccc(-c4ccn(C)n4)cc3)cc(C(=O)NCC3CCOC3)nc12 (centres unmarked) [Compound 311, 3-methyl-7-[[4-(1-methylpyrazol-3-yl)phenyl]methyl]-N-(tetrahydrofuran-3-ylmethyl)thieno[3,2-b]pyridine-5-carboxamide]	714	77.1	
Cn1ccc(-c2ccc(Cc3cc(C(=O)NCC4CCOC4)nc4ccn(C)c34)cn2)n1 (centres unmarked) [Compound 509, 1-methyl-7-[[6-(1-methylpyrazol-3-yl)-3-pyridyl]methyl]-N-(tetrahydrofuran-3-ylmethyl)pyrrolo[3,2-b]pyridine-5-carboxamide;]	4320	75.4	
Cn1cc2c(-c3cc(F)c(Cc4cc(C(=O)N[C@H]5CCCC[C@@H]5O)nc5ccsc45)c(F)c3)cccc2n1 [Compound 41, 7-[[2,6-difluoro-4-(2-methylindazol-4-yl)phenyl]methyl]-N-[(1S,2S)-2-hydroxycyclohexyl]thieno[3,2-b]pyridine-5-carboxamide]			3640
